≈ marks a conversion by molar mass, not a printed value. Peptide text beside a SMILES is read from it. * marks the point of attachment. Stearoyl = CCCCCCCCCCCCCCCCCC(=O)*
Tests used:
[1] = Encapsulation efficiency and drug loading of micelles; assay type: physicochemical; conditions: S-HM-3 concentration ranging from 0.1 to 0.7 mg/mL; data not shown
HUVECs = experiment: Transwell cell migration assay; assay type: cell-based, Human; conditions: 24 hours, Avstin 10 µg/mL, S-HM-3, TSm, HTSm 9 µg/mL, n=3
[2] = In vivo pharmacokinetic studies of S-HM-3; parameters: species or system Sprague Dawley rats; conditions: rat, background statement of the abstract
[3] = In vivo distribution studies of S-HM-3; parameters: species or system nude mice; conditions: MDA-MB-231 tumor-bearing mice, vein injection, free S-HM-3
MDA-MB-231 tumors = experiment: H&E staining and immunohistochemical analysis; assay type: in vivo, nude mice; conditions: tumor sections at 14 days, n=5
[4] = Body weight of mice during the antitumor assay; assay type: in vivo; conditions: tumor-bearing nude mice
MDA-MB-231 cells = experiment: Cytotoxicity test by MTT assay, MDA-MB-231; assay type: cell-based; conditions: Homo sapiens, MDA-MB-231, 48 h
[5] = In vivo pharmacokinetic studies of PTX; parameters: species or system Sprague Dawley rats
[6] = male, Sprague Dawley, rat, plasma, iv, 7 mg/kg

Molecule	encapsulation efficiency of S-HM-3 [1] [%]	endothelial cell MI rate (migration inhibition rate) (HUVECs) [%]	half-life [2] [h]	time at which S-HM-3 in organs reached the peak [3] [min]	time at which S-HM-3 was nearly cleared from organs [3] [min]	antiangiogenesis effect (CD31, microvessel density) (MDA-MB-231 tumors)	apoptosis in tumor cells (positive p53 rate) (MDA-MB-231 tumors)	toxicity judged from body weight ([4]; regimen of Table 1)	body weight of mice during the test period ([4]; regimen of Table 1, 14 days)	IC50 (MDA-MB-231 cells) [µg/mL]	V1 of PTX ([5]; SD rats, i.v. single dose, 7 mg/kg PTX) [L/kg]	CL of PTX ([5]; SD rats, i.v. single dose, 7 mg/kg PTX, 7 mg/kg) [mL/min/kg]	Vd [5, 6] [L/kg]	half-life [5, 6] [h]	weight loss of mice during the 0–10 days ([4]; regimen of Table 1)
CCCCCCCCCCCCCCCCCC(=O)N[C@H](C(=O)N[C@H](C(=O)N[C@@H](CCCNC(=N)N)C(=O)N[C@@H](CCCNC(=N)N)C(=O)N[C@@H](C)C(=O)N[C@@H](CC(=O)O)C(=O)N[C@@H](CCCNC(=N)N)C(=O)N[C@@H](C)C(=O)N[C@@H](C)C(=O)N[C@H](C(=O)N1CCC[C@H]1C(=O)NCC(=O)NCC(=O)NCC(=O)NCC(=O)N[C@@H](CCCNC(=N)N)C(=O)NCC(=O)N[C@@H](CC(=O)O)C(=O)O)C(C)C)C(C)C)[C@@H](C)CC [S-HM-3] (Stearoyl-IVRRADRAAVPGGGGRGD-OH; N-terminus and C-terminus assumed)	> 97	60.55	0.417	24	60	almost the same antiangiogenesis effect	did not induce significant apoptosis	very low toxicity or nontoxic	significantly increased						
Avstin: positive control of the cell migration assay, 10 µg/mL		69.89													
CC(=O)O[C@H]1C(=O)[C@@]2(C)[C@H]([C@H](OC(=O)c3ccccc3)[C@]3(O)C[C@H](OC(=O)[C@H](O)[C@@H](NC(=O)c4ccccc4)c4ccccc4)C(C)=C1C3(C)C)[C@]1(OC(C)=O)CO[C@@H]1C[C@@H]2O [PTX, Paclitaxel]						almost the same antiangiogenesis effect		high toxicity		1.37 (≈ 1.6 µM)	0.62 ± 0.08	21.5 ± 2.83	3.34 ± 0.5	1.79 ± 0.13	obvious

— paper PMC6369847 (International Journal of Nanomedicine, 2019)
